For data set [1] the following is noted: cited from earlier work.
For data set [2] the following is noted: natural Somatostatin; cited from earlier work.
The nature of data set [3]: In vivo release of SOM after subcutaneous injection, plasma SOM by ELISA. Set-up: species or system rat. The protocol:
A liquid lipid formulation comprising SPC/GDO/EtOH = 44/44/12 wt% was prepared as described in Example 1.
A freeze-dried powder of SOM (MW ca 1.6 kDa) and TRE was prepared in the same way as in Example 4 giving a SOM (free base)-to-TRE weight ratio of 1:2.5.
The freeze-dried powder was added to the lipid formulation such that the final SOM (free base) concentration in the formulation was 2 wt% (ca 20 mg/mL) followed by end-over-end rotation for 1 day. […] The final filter-sterilized formulation was then injected subcutaneously to rats (male Sprague-Dawley).
In the in vivo rat model the release of SOM was followed during 14 days. The formulations were administered subcutaneously between the scapulae by using a syringe (23G, 0.6mm × 25mm). The SOM concentration in the rat plasma was quantified using a commercial ELISA kit (S-1164, Bachem/Peninsula Laboratories, LOQ = 0.03 ng/mL). The dose was 20 mg/kg and dose volume was 1 mL/kg corresponding to a drug load of 2.0wt% SOM (free base).
In general terms: ELISA stands for enzyme-linked immunosorbent assay.

Structures can show the parent of a compound that is named as a salt.

Turning to `C[C@H](N)C(=O)NCC(=O)N[C@H]1CSSC[C@@H](C(=O)O)NC(=O)[C@H](CO)NC(=O)[C@H]([C@@H](C)O)NC(=O)[C@H](Cc2ccccc2)NC(=O)[C@H]([C@@H](C)O)NC(=O)[C@H](CCCCN)NC(=O)[C@H](Cc2c[nH]c3ccccc23)NC(=O)[C@H](Cc2ccccc2)NC(=O)[C@H](Cc2ccccc2)NC(=O)[C@H](CC(N)=O)NC(=O)[C@H](CCCCN)NC1=O` [SOM, Somatostatin, acetate salt], the “half-life of SOM in rat plasma” value in data set [1] is reported as “a few minutes”. The biological half-life in data set [2] is recorded as 1-3 minutes. The Release profile entry in data set [3] (rat plasma, subcutaneous, 20 mg/kg SOM lipid formulation, low initial release) is reported as “without a burst effect”. Besides, the “SOM levels higher than the endogenous SOM levels (factor)” value in data set [3] (rat plasma, versus placebo formulation, depending on time point, over at least 14 days, s.c. 20 mg/kg) is listed as 2-9. Besides, in data set [3] (rat, subcutaneous, 20 mg/kg SOM lipid formulation), the Duration of release result is “at least 14 days”.

Source of the values: EP2886105B1, “Controlled-release formulations” (CAMURUS AB, priority 2007, dated 2018).
